Converted amounts (≈) assume the structure as drawn. Read-outs that look alike come from different tables or passages of the source.
How the values were obtained:
[1] = tested on: lung carcinoma cell line NCI-H460; experiment: XTT proliferation assay, NCI-H460; format: cell-based; conditions: Homo sapiens; NCI-H460 cells, 45 h incubation
From the text: (§1) The substances according to the invention were investigated for their antiproliferative activity in a proliferation test on established tumor cell lines. The test used determines the cellular dehydrogenase activity and makes possible a determination of the cell vitality and indirectly the cell count. The cell lines used are the human cervical carcinoma cell line KB/HeLa, (ATCC CCL17), the ovarian adenocarcinoma cell line SKOV-3 (ATCC HTB77), the human glioblastoma cell line SF-268 (NCI 503138) and the lung carcinoma cell line NCI-H460 (NCI 503473). In addition, for the investigation of the cell cycle-specific action of the substance, an RKOp27 cell system was used (M. Schmidt et al. Oncogene 19(20):2423-9, 2000). RKO is a human colon carcinoma cell line, in which the cell cycle inhibitor p27^kip1 induced by means of the ecdysone expression system is expressed and can be led to a cell cycle arrest specifically in […]. A nonspecifically acting substance inhibits the proliferation independently of weather the RKO cell is or is not arrested in G1 or G2. Cell cycle-specific substances such as, for example, tubulin inhibitors are, however, only cytotoxic if cells are not arrested and the cell cycle is passed through. In table 1, the cytotoxic and/or growth-inhibiting activities of the compound described with/without expression of p27^kip1 are shown.
(§2) The adherently growing tumor cell lines KB/HeLa, SKOV-3, SF-268 and NCI-H460 were cultured under standard conditions in a fumigation incubator at 37° C., 5% CO2 and 95% atmospheric humidity. On experimental day 1, the cells are detached using trypsin/EDTA and pelleted by centrifugation. Subsequently, the cell pellet is resuspended in the respective culture medium at the corresponding cell count and reacted in a 96-well microtiter plate. The plates are then cultured overnight in the fumigation incubator. The test substances are prepared as 1 mg/ml stock solutions in DMSO and diluted to the appropriate concentrations on experimental day 2 using culture medium. The substances in culture medium are then added to the cells and incubated in the fumigation incubator for 45h. As a control, cells which are not treated with test substance are used. For the XTT assay, 1 mg/ml of XTT (sodium 3′-[1-(phenylaminocarbonyl)-3,4-tetrazolium]-bis(4-methoxy-6-nitro)benzenesulfonic acid) is dissolved in RPMI-1640 medium without Phenol Red. Additionally, a 0.383 mg/ml PMS (N-methyldibenzopyrazine methylsulfate) solution in phosphate-buffered saline solution (PBS) is prepared. On experimental day 4, 75 μl/well of XTT-PMS mixture is pipetted onto the cell plates which in the meantime have been incubated with the test substances for 45 h. For this, shortly before use, the XTT solution is mixed with the PMS solution in the ratio 50:1 (vol:vol). The cell plates are then incubated in the fumigation incubator for a further 3h and the optical density (OD490nm) is determined in a photometer. By means of the OD490nm determined, the percentage inhibition is calculated relative to the control and plotted semilogarithmically in the form of a concentration-action curve. The EC50 is calculated by means of a regression analysis from the concentration-action curve using the program Graphpad Prism.

[2] = tested on: human glioblastoma cell line SF-268; experiment: XTT proliferation assay, SF-268; format: cell-based; conditions: SF-268 cells, 45 h incubation
From the text: as §1, §2

[3] = tested on: ovarian adenocarcinoma cell line SKOV-3; experiment: XTT proliferation assay, SKOV-3; format: cell-based; conditions: Homo sapiens, SK-OV-3; SKOV-3 cells, 45 h incubation; read-out: XTT proliferation assay, EC50, SKOV3
From the text: as §1, §2

[4] = tested on: human cervical carcinoma cell line KB/HeLa; experiment: XTT proliferation assay, KB/HeLa; format: cell-based; conditions: KB/HeLa cells, 45 h incubation
From the text: as §1, §2

[5] = tested on: RKOp27 human colon carcinoma cell line; experiment: Cell cycle analysis by means of the RKOp27 model (XTT); format: cell-based; conditions: RKOp27, 45 h, RKOp27 cells, read-out: XTT proliferation assay, EC50, RKOP27
From the text: as §1, §2
The assay is carried out in 96-well plates. […] By comparison of the activity on induced and noninduced cells, conclusions on the mechanism of action (cell cycle specificity) of the therapeutics can be drawn. […] are inoculated in approximately three-fold higher cell count, since division no longer takes place during the assay in comparison with uninduced cells (20000 cells/well induced, 6250 cells/well not induced). The controls are untreated cells (+/−induction). The induction is carried out with 3 μM muristerone A On the 1st day, the cells are exposed (+/− muristerone A) and incubated at 37° C. for 24h. […]

bovine tubulin = experiment: Tubulin polymerization assay; format: biochemical; conditions: average of two independent experiments; for Inhibition of tubulin polymerization, EC50, without MAPs: MAP-free bovine tubulin; for Inhibition of tubulin polymerization, EC50, with 30% MAPs: bovine tubulin with 30% MAPs
Method: Selected substances were tested for inhibition of the polymerization of bovine tubulin in an in-vitro test. In this test, tubulin purified by cycles of polymerization and depolymerization is employed, which is polymerized by addition of GTP and warming. In Table 2, the EC50 values of the inhibition of polymerization of tubulin with 30% associated proteins (MAPs) and of MAP-free tubulin are indicated.
The assay is carried out based on the method of Bollag et. al. Lyophilized bovine tubulin (cytoskeleton, ML113 tubulin 30% MAPs, TL238 tubulin MAP free) is dissolved in a concentration of 2 mg/ml (ML113 in 80 mM PIPES, 0.5 mM EGTA, 2 mM MgCl2, pH6.9, 1 mM GTP) or 5 mg/ml (TL238 in 80 mM PIPES, 1 mM EGTA, 0.5 mM MgCl2, 20% (v:v) glycerol pH 6.9, 1 mM GTP). The test substances are diluted in 10% DMSO (v:v) and 5 μl of the dilutions are transferred to a 96-well microtiter plate (Nunc, half area plate). After addition of 45 μl of the tubulin solution, the polymerization is determined at 340 nm in a Spectramax 190 microtiter plate reader (Molecular devices) by means of a kinetics program at 30 sec intervals over a period of 20 min. The resulting area under curve values are used for the calculation of the inhibition with respect to the untreated control and plotted semilogarithmically in the form of a concentration-action curve. The EC50 is calculated by means of a regression analysis from the concentration-action curve using the program Graphpad Prism.

[6] = p27kip1 induced with 3 μM muristerone A (arrested)
[7] = without expression of p27kip1 (not induced)

Cc1cc(C)cc(N2CCN(C(=O)c3cnnc4ccccc34)CC2)c1 [Compound 5, Cinnolin-4-yl-[4-(3,5-dimethylphenyl)piperazin-1-yl]methanone]
EC50 [1]: 0.348 mg/L (≈ 1 µM)
EC50 [2]: 0.474 mg/L (≈ 1.37 µM)
EC50 [3]: 0.496 mg/L (≈ 1.43 µM)
melting point: 114 °C
EC50 [4]: 1.21 mg/L (≈ 3.5 µM)
EC50 [5, 6]: > 3.16 mg/L
EC50 [5, 7]: 0.25 mg/L (≈ 0.722 µM)

COc1cc(OC)cc(N2CCN(C(=O)C3c4ccccc4Oc4ccccc43)CC2)c1 [Compound 12, [4-(3,5-Dimethoxyphenyl)piperazin-1-yl]-(9H-xanthen-9-yl)methanone]
EC50 [1]: 0.064 mg/L (≈ 0.149 µM)
Inhibition of tubulin polymerization, EC50, without MAPs (bovine tubulin): 1.71 mg/L
Inhibition of tubulin polymerization, EC50, with 30% MAPs (bovine tubulin): 1.16 mg/L
EC50 [2]: 0.075 mg/L (≈ 0.174 µM)
EC50 [3]: 0.029 mg/L (≈ 0.0674 µM)
EC50 [4]: 0.08 mg/L (≈ 0.186 µM)
EC50 [5, 6]: > 3.16 mg/L
EC50 [5, 7]: 0.058 mg/L (≈ 0.135 µM)

COc1cccc(N2CCN(C(=O)c3cccc4c3Cc3ccccc3-4)CC2)c1 [Compound 11, (9H-Fluoren-1-yl)-[4-(3-methoxyphenyl)piperazin-1-yl]methanone]
melting point: 124 °C

CSc1nsc(SC)c1C(=O)N1CCN(c2cccc(C)n2)CC1 [Compound 7, (3,5-Bismethylsulfanylisothiazol-4-yl)-[4-(6-methylpyridin-2-yl)piperazin-1-yl]methanone]
EC50 [1]: 1.54 mg/L (≈ 4.05 µM)
EC50 [3]: 1.01 mg/L (≈ 2.65 µM)
EC50 [4]: 2.71 mg/L (≈ 7.12 µM)
EC50 [5, 6]: > 3.16 mg/L
EC50 [5, 7]: 1.2 mg/L (≈ 3.15 µM)

COc1cc(OC)cc(N2CCN(C(=O)c3cccc4c3Cc3ccccc3-4)CC2)c1 [Compound 9, [4-(3,5-Dimethoxyphenyl)piperazin-1-yl]-(9H-fluoren-1-yl)methanone]
EC50 [1]: 0.427 mg/L (≈ 1.03 µM)
EC50 [2]: 0.692 mg/L (≈ 1.67 µM)
EC50 [3]: 0.341 mg/L (≈ 0.823 µM)
melting point: 148 °C
EC50 [4]: 0.613 mg/L (≈ 1.48 µM)
EC50 [5, 6]: > 3.16 mg/L
EC50 [5, 7]: 0.217 mg/L (≈ 0.524 µM)

Cc1cccc(N2CCN(C(=O)c3cccc4c3-c3ccccc3C4=O)CC2)n1 [Compound 2, 4-[4-(6-Methylpyridin-2-yl)piperazine-1-carbonyl]fluoren-9-one]
EC50 [1]: 0.886 mg/L (≈ 2.31 µM)
EC50 [2]: 0.939 mg/L (≈ 2.45 µM)
EC50 [3]: 0.585 mg/L (≈ 1.53 µM)
EC50 [4]: 2.59 mg/L (≈ 6.76 µM)
EC50 [5, 6]: > 3.16 mg/L
EC50 [5, 7]: 0.326 mg/L (≈ 0.85 µM)

O=C1c2ccccc2-c2c1cccc2C(=O)N1CCN(c2cccc(O)c2)CC1 [Compound 3, 4-[4-(3-Hydroxyphenyl)piperazine-1-carbonyl]fluoren-9-one]
EC50 [1]: 0.853 mg/L (≈ 2.22 µM)
Inhibition of tubulin polymerization, EC50, with 30% MAPs (bovine tubulin): 4.77 mg/L
EC50 [2]: 0.478 mg/L (≈ 1.24 µM)
EC50 [3]: 0.397 mg/L (≈ 1.03 µM)
EC50 [4]: 4.32 mg/L (≈ 11.2 µM)
EC50 [5, 6]: > 3.16 mg/L
EC50 [5, 7]: 0.726 mg/L (≈ 1.89 µM)

Cc1cccc(N2CCN(C(=O)c3ccnn3-c3ccccc3)CC2)n1 [Compound 15, [4-(6-Methylpyridin-2-yl)piperazin-1-yl]-(2-phenyl-2H-pyrazol-3-yl)methanone]
EC50 [1]: 0.024 mg/L (≈ 0.0691 µM)
Inhibition of tubulin polymerization, EC50, with 30% MAPs (bovine tubulin): 0.88 mg/L
EC50 [2]: 0.036 mg/L (≈ 0.104 µM)
EC50 [3]: 0.018 mg/L (≈ 0.0518 µM)
EC50 [4]: 0.04 mg/L (≈ 0.115 µM)
EC50 [5, 6]: > 3.16 mg/L
EC50 [5, 7]: 0.022 mg/L (≈ 0.0633 µM)

COc1cccc(N2CCN(C(=O)c3ccnn3-c3ccccc3)CC2)c1 [Compound 14, [4-(3-Methoxyphenyl)piperazin-1-yl]-(2-phenyl-2H-pyrazol-3-yl)methanone]
EC50 [1]: 0.005 mg/L (≈ 0.0138 µM)
Inhibition of tubulin polymerization, EC50, with 30% MAPs (bovine tubulin): 0.46 mg/L
EC50 [2]: 0.009 mg/L (≈ 0.0248 µM)
EC50 [3]: 0.008 mg/L (≈ 0.0221 µM)
EC50 [4]: 0.012 mg/L (≈ 0.0331 µM)
EC50 [5, 6]: > 3.16 mg/L
EC50 [5, 7]: 0.006 mg/L (≈ 0.0166 µM)

COc1cc(OC)cc(N2CCN(C(=O)c3cccc4c3-c3ccccc3C4=O)CC2)c1 [Compound 1, 4-[4-(3,5-Dimethoxyphenyl)piperazine-1-carbonyl]fluoren-9-one]
EC50 [1]: 0.312 mg/L (≈ 0.728 µM)
Inhibition of tubulin polymerization, EC50, without MAPs (bovine tubulin): 1.36 mg/L
Inhibition of tubulin polymerization, EC50, with 30% MAPs (bovine tubulin): 0.86 mg/L
EC50 [2]: 0.309 mg/L (≈ 0.721 µM)
EC50 [3]: 0.4 mg/L (≈ 0.934 µM)
EC50 [4]: 0.555 mg/L (≈ 1.3 µM)
EC50 [5, 6]: > 3.16 mg/L
EC50 [5, 7]: 0.208 mg/L (≈ 0.485 µM)

COc1cc(OC)cc(N2CCN(C(=O)c3nccc4ccccc34)CC2)c1 [Compound 8, [4-(3,5-Dimethoxyphenyl)piperazin-1-yl]isoquinolin-1-ylmethanone]
EC50 [1]: 0.439 mg/L (≈ 1.16 µM)
Inhibition of tubulin polymerization, EC50, with 30% MAPs (bovine tubulin): 5.66 mg/L
EC50 [2]: 0.775 mg/L (≈ 2.05 µM)
EC50 [3]: 0.287 mg/L (≈ 0.76 µM)
EC50 [4]: 0.929 mg/L (≈ 2.46 µM)
EC50 [5, 6]: > 3.16 mg/L
EC50 [5, 7]: 0.291 mg/L (≈ 0.771 µM)

COc1cccc(N2CCN(C(=O)C3c4ccccc4-c4ccccc43)CC2)c1 [Compound 10, (9H-Fluoren-9-yl)-[4-(3-methoxyphenyl)piperazin-1-yl]methanone]
EC50 [1]: 0.085 mg/L (≈ 0.221 µM)
Inhibition of tubulin polymerization, EC50, with 30% MAPs (bovine tubulin): 1.18 mg/L
EC50 [2]: 0.094 mg/L (≈ 0.244 µM)
EC50 [3]: 0.082 mg/L (≈ 0.213 µM)
melting point: 162 to 163 °C
EC50 [4]: 0.166 mg/L (≈ 0.432 µM)
EC50 [5, 6]: > 3.16 mg/L
EC50 [5, 7]: 0.082 mg/L (≈ 0.213 µM)

COc1cccc(N2CCN(C(=O)C3c4ccccc4Oc4ccccc43)CC2)c1 [Compound 13, [4-(3-Methoxyphenyl)piperazin-1-yl]-(9H-xanthen-9-yl)methanone]
EC50 [1]: 0.29 mg/L (≈ 0.724 µM)
Inhibition of tubulin polymerization, EC50, with 30% MAPs (bovine tubulin): 0.73 mg/L
EC50 [2]: 0.408 mg/L (≈ 1.02 µM)
EC50 [3]: 0.293 mg/L (≈ 0.732 µM)
melting point: 110 °C
EC50 [4]: 0.628 mg/L (≈ 1.57 µM)
EC50 [5, 6]: > 3.16 mg/L
EC50 [5, 7]: 0.193 mg/L (≈ 0.482 µM)

O=C(c1ccnn1-c1ccccc1)N1CCN(c2cccc(O)c2)CC1 [Compound 16, [4-(3-Hydroxyphenyl)piperazin-1-yl]-(2-phenyl-2H-pyrazol-3-yl)methanone]
EC50 [1]: 0.087 mg/L (≈ 0.25 µM)
Inhibition of tubulin polymerization, EC50, with 30% MAPs (bovine tubulin): 4.20 mg/L
EC50 [2]: 0.1 mg/L (≈ 0.287 µM)
EC50 [3]: 0.082 mg/L (≈ 0.235 µM)
EC50 [4]: 0.147 mg/L (≈ 0.422 µM)
EC50 [5, 6]: > 3.16 mg/L
EC50 [5, 7]: 0.064 mg/L (≈ 0.184 µM)
